{"source": "patent US11891377B1", "about": "“Pyrrolo[3,2-c][2,7]naphthyridine-2-carboxylic acid compounds as CK2 inhibitors” (KING FAISAL UNIVERSITY, priority 2023, dated 2024)", "key": {"PC3 (prostate)": {"system": "PC3 (prostate)", "assay": "In vitro cytotoxic activity (MTT) assay, PC3", "assay_type": "cell-based", "conditions": "Homo sapiens, PC-3; PC3 cells, exposed for 96 hours; read-out: IC50, 50% inhibition of cell proliferation, PC3 (prostate)", "description": "(§1) Compounds 1-16 were screened for their in vitro cytotoxic activity utilizing a 3-(4,5-dimethyl-thiazol-2-yl)-2,5-diphenyltetrazolium bromide (MTT) assay against selected cancer human cell lines consisting of PC3 (prostate), HCT116 (colon), A375 (melanoma), H1299 (lung), MIAPaCa-2 (pancreas), HL60 (leukemia), MCF7 (breast), MDA-MB-231 (breast) (T. Mosmann, J. Immunol. Meth., 1983, 65, 55-63). The cells were cultured at 37° C. in RMPI1640 medium supplemented with 10% fetal bovine serum, 50 IU/mL penicillin, and 50 μg/mL streptomycin in a 5% CO2 incubator. All cells were sub-cultured 3 times/week by trypsinisation. Viable cells were seeded and allowed to adhere for 12 h before a test drug was added in 96-well plates at an initial density of 1.0×10^5 cells/mL. Tumour cell lines were separately exposed to various concentrations of the tested compounds followed by incubation at a temperature of 37° C. during 96 h inside a medium of fresh RMPI 1640. Cells were subsequently incubated at 37° C. using MTT at 0.5 mg/mL during 4 h. After removal of supernatant, formazan crystals were dissolved in isopropanol and the optical density was measured at 570 nm. CX-4945 was used as a positive control."}, "HCT116 (colon)": {"system": "HCT116 (colon)", "assay": "In vitro cytotoxic activity (MTT) assay, HCT116", "assay_type": "cell-based", "conditions": "Homo sapiens, HCT-116; HCT116 cells, exposed for 96 hours; read-out: IC50, 50% inhibition of cell proliferation, HCT116 (colon)", "description": "as §1"}, "A375 (melanoma)": {"system": "A375 (melanoma)", "assay": "In vitro cytotoxic activity (MTT) assay, A375", "assay_type": "cell-based", "conditions": "Homo sapiens, A-375; A375 cells, exposed for 96 hours; read-out: IC50, 50% inhibition of cell proliferation, A375 (melanoma)", "description": "as §1"}, "H1299 (lung)": {"system": "H1299 (lung)", "assay": "In vitro cytotoxic activity (MTT) assay, H1299", "assay_type": "cell-based", "conditions": "Homo sapiens, NCI-H1299; H1299 cells, exposed for 96 hours; read-out: IC50, 50% inhibition of cell proliferation, H1299 (lung)", "description": "as §1"}, "MIAPaCa-2 (pancreas)": {"system": "MIAPaCa-2 (pancreas)", "assay": "In vitro cytotoxic activity (MTT) assay, MIAPaCa-2", "assay_type": "cell-based", "conditions": "Homo sapiens, MIA PaCa-2; MIAPaCa-2 cells, exposed for 96 hours; read-out: IC50, 50% inhibition of cell proliferation, MIAPaCa-2 (pancreas)", "description": "as §1"}, "HL60 (leukemia)": {"system": "HL60 (leukemia)", "assay": "In vitro cytotoxic activity (MTT) assay, HL60", "assay_type": "cell-based", "conditions": "Homo sapiens, HL-60; HL60 cells, exposed for 96 hours; read-out: IC50, 50% inhibition of cell proliferation, HL60 (leukemia)", "description": "as §1"}, "MCF7 (breast)": {"system": "MCF7 (breast)", "assay": "In vitro cytotoxic activity (MTT) assay, MCF7", "assay_type": "cell-based", "conditions": "Homo sapiens; MCF7 cells, exposed for 96 hours; read-out: IC50, 50% inhibition of cell proliferation, MCF7 (breast)", "description": "as §1"}, "MDA-MB-231 (breast)": {"system": "MDA-MB-231 (breast)", "assay": "In vitro cytotoxic activity (MTT) assay, MDA-MB-231", "assay_type": "cell-based", "conditions": "Homo sapiens; MDA-MB-231 cells, exposed for 96 hours; read-out: IC50, 50% inhibition of cell proliferation, MDA-MB-231 (breast)", "description": "as §1"}, "[1]": {"target": "T1, recombinant human CK2 (RRββ-holoenzyme) (Homo sapiens, UniProt P68400)", "T1 construct": "purchased Millipore", "T1 sequence (P68400 whole entry)": "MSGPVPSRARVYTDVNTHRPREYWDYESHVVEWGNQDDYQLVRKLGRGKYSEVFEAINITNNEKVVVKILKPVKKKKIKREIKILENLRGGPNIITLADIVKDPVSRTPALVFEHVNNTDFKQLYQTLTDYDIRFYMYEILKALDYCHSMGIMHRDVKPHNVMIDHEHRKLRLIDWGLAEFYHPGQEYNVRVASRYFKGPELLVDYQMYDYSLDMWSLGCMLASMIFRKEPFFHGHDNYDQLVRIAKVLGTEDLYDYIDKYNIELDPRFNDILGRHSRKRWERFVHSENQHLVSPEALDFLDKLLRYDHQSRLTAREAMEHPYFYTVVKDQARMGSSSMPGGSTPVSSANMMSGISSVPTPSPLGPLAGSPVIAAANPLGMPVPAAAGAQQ", "T1 sequence (P67870 whole entry partner)": "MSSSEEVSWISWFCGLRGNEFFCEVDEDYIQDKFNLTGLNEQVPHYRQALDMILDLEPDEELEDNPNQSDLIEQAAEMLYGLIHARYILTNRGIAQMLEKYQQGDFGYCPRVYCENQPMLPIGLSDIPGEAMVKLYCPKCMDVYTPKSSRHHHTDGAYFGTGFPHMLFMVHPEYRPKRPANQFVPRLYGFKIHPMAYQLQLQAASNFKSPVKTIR", "assay": "CK2 Kinase Assay (radiometric, [γ-33P]ATP)", "assay_type": "biochemical", "conditions": "final ATP concentration 15 μM, 10 min at 30° C.; read-out: protein kinase CK2 IC50", "description": "CK2 Kinase Assay was conducted using the protocol as described in Pierre F. et al; J. Med. Chem. 2011, 54, 635-654. The tested compounds in aqueous solution were added at a volume of 10 μL to a reaction mixture comprising 10 μL of assay dilution buffer (ADB; 20 mM MOPS, pH 7.2, 25 mM β-glycerol phosphate, 5 mM EGTA, 1 mM sodium orthovanadate, and 1 mM dithiothreitol), 10 μL of substrate peptide (RRRDDDSDDD, dissolved in ADB at a concentration of 1 mM), 10 μL of recombinant human CK2 (RRββ-holoenzyme, 25 ng dissolved in ADB; Millipore). Reactions were initiated by the addition of 10 μL of ATP solution (90% 75 mMMgCl2, 75 μM ATP (final ATP concentration: 15 μM) dissolved in ADB; 10% [γ-33P] ATP (stock 1 mCi/100 μL; 3000 Ci/mmol (Perkin-Elmer) and maintained for 10 min at 30° C. The reactions were quenched with 100 μL of 0.75% phosphoric acid and then transferred to and filtered through a phosphor cellulose filter plate (Millipore). After washing each well five times with 0.75% phosphoric acid, the plate was dried under vacuum for 5 min and, following the addition of 15 μL of scintillation fluid to each well, the residual radioactivity was measured using a Wallac luminescence counter. The ICso values were derived from eight concentrations of test inhibitors."}}, "note": "pIC50: −log10 of the molar value."}
{"smiles": "O=C(O)c1cc2nc(Nc3cccc(Cl)c3)c3cnccc3c2[nH]1", "note": "[Compound 1, 5-((3-chlorophenyl)amino)-1H-pyrrolo[3,2-c][2,7]naphthyridine-2-carboxylic Acid]", "values": [{"measurement": "pIC50", "setting": "PC3 (prostate)", "value": 5.68}, {"measurement": "pIC50", "setting": "HCT116 (colon)", "value": 5.89}, {"measurement": "pIC50", "setting": "A375 (melanoma)", "value": 5.60}, {"measurement": "pIC50", "setting": "H1299 (lung)", "value": 5.92}, {"measurement": "pIC50", "setting": "MIAPaCa-2 (pancreas)", "value": 5.96}, {"measurement": "pIC50", "setting": "HL60 (leukemia)", "value": 5.59}, {"measurement": "pIC50", "setting": "MCF7 (breast)", "value": 5.41}, {"measurement": "pIC50", "setting": "MDA-MB-231 (breast)", "value": 5.48}, {"measurement": "pIC50", "setting": "[1]", "value": 7.46}]}
